Consider 41 compounds from ChEMBL document CHEMBL1142052, “Isosteric ramatroban analogs: selective and potent CRTH-2 antagonists” (Bioorg Med Chem Lett, 2005).

The term pKi denotes the Ki on a negative log10 scale, so that one unit is a factor of ten. For orientation: pIC50 means the negative decadic logarithm of the IC50, by convention in mol/L. In general, inhibition refers to how much of the control response was suppressed. A lower inhibition goes with little suppression.

Assay [1] deals with T1, Prostaglandin D2 receptor 2 (Homo sapiens, UniProt Q9Y5Y4).
T1 sequence (Q9Y5Y4 whole entry): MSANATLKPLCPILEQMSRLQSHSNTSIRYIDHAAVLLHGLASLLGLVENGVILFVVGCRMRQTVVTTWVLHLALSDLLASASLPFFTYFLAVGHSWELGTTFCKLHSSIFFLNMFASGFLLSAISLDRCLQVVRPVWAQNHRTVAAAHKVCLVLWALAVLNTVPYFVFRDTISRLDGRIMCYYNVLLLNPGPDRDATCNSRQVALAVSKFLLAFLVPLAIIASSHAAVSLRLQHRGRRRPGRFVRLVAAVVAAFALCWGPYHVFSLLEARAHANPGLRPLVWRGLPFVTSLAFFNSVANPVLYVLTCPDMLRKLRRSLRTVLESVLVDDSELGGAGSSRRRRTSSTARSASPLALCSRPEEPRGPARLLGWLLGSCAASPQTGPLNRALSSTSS
The experiment in a line: Inhibitory activity for binding of PGD-2 to CRTH-2 in hCRTH-2 binding assay using HEK293 cell membranes.

Assay [2] concerns the target T1, Prostaglandin D2 receptor 2. The experiment in a line: Inhibitory concentration for PGD2-mediated receptor activation in a fluorescence assay that measures changes in intracellular calcium. Type of assay: functional, cell-based. Background: A change in cytosolic calcium serves as a functional read-out for many receptors and channels.
Assay [3] shares this target. The experiment in a line: Inhibitory activity against CRTH-2 in hCRTH-2 binding assay using HEK293 cell membranes.
For assay [4], the target named is T2, Thromboxane A2 receptor (Homo sapiens, UniProt P21731).
T2 sequence (P21731 whole entry): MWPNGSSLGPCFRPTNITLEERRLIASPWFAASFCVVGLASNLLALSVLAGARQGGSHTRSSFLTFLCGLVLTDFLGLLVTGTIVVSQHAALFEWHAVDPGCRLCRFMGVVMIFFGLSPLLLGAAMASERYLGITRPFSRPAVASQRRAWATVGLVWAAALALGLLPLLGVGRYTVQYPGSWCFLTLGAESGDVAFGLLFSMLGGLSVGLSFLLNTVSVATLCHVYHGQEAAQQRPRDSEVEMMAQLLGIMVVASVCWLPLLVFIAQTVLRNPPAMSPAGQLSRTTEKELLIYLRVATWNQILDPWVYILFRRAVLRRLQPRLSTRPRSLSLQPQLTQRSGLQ
The assay is described as follows: Inhibitory activity for binding of PGD-2 in hTP binding assay using HEK293 cell membranes.

Assay [5] has as its target T3, Thromboxane A2 receptor (Homo sapiens) (UniProt P21731).
T3 sequence (whole entry): T2 sequence (P21731 whole entry)
The experiment in a line: Percentage inhibition for binding of PGD-2 in hTP binding assay using HEK293 cell membranes. The settings on record: concentration not given here.

For assay [6], the target named is T1, Prostaglandin D2 receptor 2. The experiment in a line: = for PGD2-mediated receptor activation in a fluorescence assay that measures changes in intracellular calcium.
The target in assay [7] is T2, Thromboxane A2 receptor. The experiment in a line: Inhibitory activity for binding of PGD-2 to hTP in hTP binding assay using HEK293 cell membranes.

pIC50, pKi: −log10 of the molar value.

As to `CC(Cn1c2c(c3cc(NS(=O)(=O)c4ccc(F)cc4)ccc31)CCCC2)C(=O)O` (configuration not stated), in assay [1], the pKi is < 4.30.

Turning to `O=C(O)CCn1c2c(c3cc(NS(=O)(=O)c4ccc(F)c(Cl)c4)ccc31)CCCC2`, the pKi in assay [1] is 5.77.

`O=C(O)CCn1c2c(c3cc(NS(=O)(=O)c4ccc(-c5ccccc5)cc4)ccc31)CCCC2` had a pKi in assay [1] of 5.48.

Consider `CCCS(=O)(=O)Nc1ccc2c(c1)c1c(n2CCC(=O)O)CCCC1`, for which the pKi in assay [1] was < 4.30.

As to `O=C(O)Cn1c2c(c3cc(NS(=O)(=O)c4ccc(F)cc4)ccc31)CCC2`, the pIC50 in assay [2] is 6.89.

In turn, `Cc1cccc(S(=O)(=O)Nc2ccc3c(c2)c2c(n3CCC(=O)O)CCCC2)c1` gave a pKi in assay [1] of 5.38.

In assay [1], `O=C(O)c1ccccc1-n1c2c(c3cc(NS(=O)(=O)c4ccc(F)cc4)ccc31)CCCC2` gave a pKi of 4.48.

Take `O=C(O)CCn1c2c(c3cc(NS(=O)(=O)c4ccc(F)cc4)ccc31)CCCC2`: the pKi is 6.60 in assay [3], 5.82 in assay [4] and 6.60 in assay [1].

As for `O=C(O)CCn1c2c(c3cc(NS(=O)(=O)c4ccccc4F)ccc31)CCCC2`, in assay [1], the pKi was 6.01.

`CC(CC(=O)O)n1c2c(c3cc(NS(=O)(=O)c4ccc(F)cc4)ccc31)CCCC2` (configuration not stated): the pKi in assay [1] was < 4.30.

In the case of `CC1CCc2c(c3cc(NS(=O)(=O)c4ccc(F)cc4)ccc3n2CC(=O)O)C1` (configuration not stated), the pKi in assay [4] is < 4.70. For the same compound, in assay [2], the pIC50 is 8.01. In addition, the inhibition in assay [5] was found to be 30%.

On to `COc1ccc(S(=O)(=O)Nc2ccc3c(c2)c2c(n3CCC(=O)O)CCCC2)cc1`, for which the pKi in assay [1] is 5.68.

As to `O=C(O)CCn1c2c(c3cc(NCc4ccccc4)ccc31)CCCC2`, in assay [1], the pKi was 4.77.

In turn, `O=C(O)CCn1c2c(c3cc(NS(=O)(=O)c4ccc(Oc5ccccc5)cc4)ccc31)CCCC2` gave a pKi in assay [1] of 5.12.

Regarding `O=C(O)c1ccc(-n2c3c(c4cc(NS(=O)(=O)c5ccc(F)cc5)ccc42)CCCC3)cc1`, in assay [1], the pKi is 5.19.

As to `O=C(O)Cn1c2c(c3cc(NS(=O)(=O)c4ccc(F)cc4)ccc31)CC(c1ccccc1)CC2` (configuration not stated), the pKi in assay [4] was < 4.70. Further, the pIC50 in assay [2] is 7.66. The compound also had an inhibition in assay [5] of 66%.

Compound `O=C(O)CCn1c2c(c3cc(NS(=O)(=O)c4cccs4)ccc31)CCCC2` showed a pKi in assay [1] of 5.12.

Regarding `O=C(O)CCCn1c2c(c3cc(NS(=O)(=O)c4ccc(F)cc4)ccc31)CCCC2`, in assay [1], the pKi is 5.08.

In assay [1], `O=C(O)CCn1c2c(c3cc(NS(=O)(=O)c4ccc(F)cc4F)ccc31)CCCC2` gave a pKi of 5.44.

`CC(C)(C)C1CCc2c(c3cc(NS(=O)(=O)c4ccc(F)cc4)ccc3n2CC(=O)O)C1` (configuration not stated): the pIC50 in assay [2] is 6.92.

As for `O=P(O)(O)CCn1c2c(c3cc(NS(=O)(=O)c4ccc(F)cc4)ccc31)CCCC2`, in assay [1], the pKi is < 4.30.

In assay [1], `O=S(=O)(O)CCn1c2c(c3cc(NS(=O)(=O)c4ccc(F)cc4)ccc31)CCCC2` showed a pKi of 5.62.

Take `O=C(O)c1cccc(-n2c3c(c4cc(NS(=O)(=O)c5ccc(F)cc5)ccc42)CCCC3)c1`: the pKi in assay [1] is 4.57.

As for `O=C(O)CCn1c2c(c3cc(NC(=O)Nc4ccccc4)ccc31)CCCC2`, in assay [1], the pKi was < 4.30.

As to `O=C(O)CCn1c2c(c3ccccc31)C[C@H](NS(=O)(=O)c1ccc(F)cc1)CC2` [RAMATROBAN], the pKi is 7.74 in assay [4] and 6.54 in assay [1]. The compound also had an inhibition in assay [5] of 98%. For the same compound, the pIC50 in assay [6] is 6.47.

As for `O=C(O)CCn1c2c(c3cc(NS(=O)(=O)c4ccc(Cl)cc4)ccc31)CCCC2`, the pKi in assay [1] is 5.52.

Take `O=C(O)CCn1c2c(c3cc(NS(=O)(=O)c4ccc(F)c(F)c4)ccc31)CCCC2`: the pKi in assay [1] was 5.38.

As for `O=C(O)CN1c2ccc(NS(=O)(=O)c3ccc(F)cc3)cc2C2CCCCCC21` (configuration not stated), the pKi in assay [4] is < 4.70. In addition, in assay [2], the pIC50 is 7.66.

For the compound `Cc1ccc(S(=O)(=O)Nc2ccc3c(c2)c2c(n3CCC(=O)O)CCCC2)cc1`, the pKi in assay [1] is 5.49.

In turn, `CCC(C(=O)O)n1c2c(c3cc(NS(=O)(=O)c4ccc(F)cc4)ccc31)CCCC2` (configuration not stated) gave a pKi in assay [1] of 4.74. Against the preceding compound, the pKi is 0.75 log units lower.

With `O=C(O)CCn1c2c(c3cc(NS(=O)(=O)c4ccccc4)ccc31)CCCC2`, in assay [1], the pKi was 5.92.

For `O=C(O)CCn1c2c(c3cc(NS(=O)(=O)c4cccc(F)c4)ccc31)CCCC2`, the pKi in assay [1] was 5.89. The pKi values of the last two compounds are within 0.2 log units of each other.

For `O=C(O)/C=C\n1c2c(c3cc(NS(=O)(=O)c4ccc(F)cc4)ccc31)CCCC2`, the pKi in assay [1] was 4.72.

On to `O=C(O)Cn1c2c(c3cc(NS(=O)(=O)c4ccc(F)cc4)ccc31)CCCC2`, for which the pKi in assay [1] is 7.52; in assay [7], < 4.70.

Consider `Cc1ccccc1S(=O)(=O)Nc1ccc2c(c1)c1c(n2CCC(=O)O)CCCC1`, for which the pKi in assay [1] is < 4.30.

For the compound `O=C(O)CCn1c2c(c3cc(NS(=O)(=O)c4ccc(O)cc4)ccc31)CCCC2`, the pKi in assay [1] was 5.13.

On to `Nc1ccc2c(c1)c1c(n2CCC(=O)O)CCCC1`, for which the pKi in assay [1] is < 4.30.

In turn, `CC(C(=O)O)n1c2c(c3cc(NS(=O)(=O)c4ccc(F)cc4)ccc31)CCCC2` (configuration not stated) gave a pKi in assay [1] of 5.36.

`O=C(O)CCn1c2c(c3cc(NC(=O)c4ccccc4)ccc31)CCCC2`: the pKi in assay [1] is < 4.30.

In assay [1], `O=C(O)CCCCn1c2c(c3cc(NS(=O)(=O)c4ccc(F)cc4)ccc31)CCCC2` had a pKi of 5.34.

`O=C(O)CCn1c2c(c3cc(NS(=O)(=O)c4ccc5ccccc5c4)ccc31)CCCC2`: the pKi in assay [1] was 5.13.
